Reference: patent US20240344145A1, “PHARMACOGENOMICS SCORE TO MAKE DECISIONS ON THERAPY AUGMENTATION IN AML” (University of Florida Research Foundation, Incorporated, priority 2021, published 2024)

System: ara-C metabolic pathway genes
Test: Association of ara-C pathway SNP genotypes with MRD1, EFS and OS in AML02 (logistic regression and Cox models; also within LDAC and HDAC arms)
Set-up: species or system human
Settings: within arm of AML02
Source text: Genomic DNA from patients enrolled in the multi-site St. Jude AML02 trial was genotyped for 155 SNPs in 16 genes of relevance to ara-C pharmacology using sequenom iPlex platform that uses MALDI-TOF based chemistry at University of Minnesota, Biomedical Genomics Center. SNPs were selected based on previously reported studies. For SNPs lacking literature on genetic variation, SNPs were selected to capture LD blocks (European and African ancestry) on a gene. Of 155 SNPs, 1 SNP was excluded due to low call rate (<90%), 47 SNPs were excluded due to minimum allele frequency of less than 5%, 11 SNPs were excluded due to high LD (r^2>0.9) with other SNPs; two SNPs were excluded because of deviation from Hardy-Weinberg equilibrium. Genotype for the COG-AAML0531 cohort for the selected SNPs was obtained using sequenom platform or TaqMan genotyping assays, and for a few SNPs was extracted from the data available on Illumina 2.5 Omni array. Genotype calls from multiple platforms were confirmed across multiple samples randomly collected from the cohort.
SNP genotype groups in three different modes of inheritance (additive, dominant, and recessive) were tested for association with MRD1 using logistic regression models. Odds ratio (OR) and 95% confidence interval (CI) were calculated for each test. SNPs with association P-value<0.05 were considered significant. Cox-proportional hazard models were used to evaluate association of genotype groups with EFS or OS. Hazard ratio (HR) and 95% CI were calculated for each test. p-value<0.05 was considered statistically significant. Given initial risk group assignments are well-established prognostic factors associated with outcome, outcome association analysis of SNPs with and without adjusting for risk group was also performed to identify SNPs that are associated with outcome independent of risk group.
SNPs with p<0.15 in risk-adjusted univariate evaluation with clinical endpoints (MRD1, EFS, and OS) were tested for all possible combinations with a maximum of three SNPs per model in multivariable logistic regression models for association with MRD1 and Cox-proportional hazard models for association with EFS and OS. Analysis for up to 3 SNP combinations was restricted due to computational challenges as increasing the maximum number of SNPs per model drastically increases the number of models as 1000 permutations were run for each model. Models were ordered according to their Bayesian Information Criterion (BIC) and weight in favor of each model. One thousand permutation tests were performed for each model to determine statistical significance. The six unique SNPs from the most significant models for EFS and MRD1 were included in the development of the ACS10 score as described in the results section.
The multicenter AML02 clinical trial randomly assigned subjects to receive low dose ara-C (LDAC: 100 mg/m^2; n=91 patients) or high dose ara-C(HDAC: 3 g/m^2; n=75 patients) in combination with daunorubicin and etoposide as the first course of chemotherapy as described above in patient cohort section. Thus, the association of SNPs with outcome within each arm separately was also explored (Table 5).

[1] = rs4917384 (NT5C2, WT C, VAR T), MOI D
[2] = rs4980345 (SLC28A1, WT G, VAR A), MOI A
[3] = rs6552622 (DCTD, WT C, VAR G), MOI D
[4] = rs6742272 (RRM2, WT C, VAR G), MOI A
[5] = rs6834938 (DCTD, WT C, VAR T), MOI R
[6] = rs6946062 (NT5C3, WT T, VAR C), MOI D
[7] = rs7533657 (CTPS1, WT C, VAR T), MOI R
[8] = rs7543016 (CMPK1, WT C, VAR G), MOI R
[9] = rs7776847 (NT5C3, WT G, VAR A), MOI A
[10] = rs7874528 (SLC28A3, WT G, VAR T), MOI D
[11] = rs10252880 (NT5C3, WT G, VAR C), MOI A
[12] = rs10767827 (RRM1, WT G, VAR T), MOI D
[13] = rs10786736 (NT5C2, WT G, VAR C), MOI D
[14] = rs10916819 (CDA, WT A, VAR G), MOI D
[15] = rs11140525 (SLC28A3, WT G, VAR A), MOI A
[16] = rs11191558 (NT5C2, WT G, VAR A), MOI D
[17] = rs11737887 (DCTD, WT T, VAR C), MOI A
[18] = rs12554292 (SLC28A3, WT C, VAR T), MOI D
[19] = rs12806698 (RRM1, WT C, VAR A), MOI D
[20] = rs17103168 (CMPK1, WT A, VAR G), MOI D

Nc1ccn([C@@H]2O[C@H](CO)[C@@H](O)[C@@H]2O)c(=O)n1 [LDAC, cytarabine]
EFS HR (95% CI) [1]: 1.04 (0.76-1.44)
MRD1 OR (95% CI) [1]: 0.78 (0.51-1.19)
OS HR (95% CI) [1]: 0.87 (0.58-1.29)
EFS HR (95% CI) [2]: 1.81 (1-3.26)
MRD1 OR (95% CI) [2]: 1.08 (0.45-2.58)
OS HR (95% CI) [2]: 1.84 (0.95-3.55)
EFS HR (95% CI) [3]: 1.05 (0.7-1.59)
MRD1 OR (95% CI) [3]: 0.86 (0.49-1.49)
OS HR (95% CI) [3]: 1.22 (0.77-1.94)
EFS HR (95% CI) [4]: 1.5 (0.95-2.36)
MRD1 OR (95% CI) [4]: 0.49 (0.25-0.96)
OS HR (95% CI) [4]: 1.43 (0.83-2.48)
EFS HR (95% CI) [5]: 1.4 (0.83-2.35)
MRD1 OR (95% CI) [5]: 1.92 (0.82-4.48)
OS HR (95% CI) [5]: 1.75 (1.02-3)
EFS HR (95% CI) [6]: 0.75 (0.54-1.04)
MRD1 OR (95% CI) [6]: 0.94 (0.61-1.46)
OS HR (95% CI) [6]: 0.58 (0.39-0.87)
EFS HR (95% CI) [7]: 1.12 (0.62-2.02)
MRD1 OR (95% CI) [7]: 0.9 (0.36-2.27)
OS HR (95% CI) [7]: 1.05 (0.51-2.16)
EFS HR (95% CI) [8]: 0.85 (0.55-1.32)
MRD1 OR (95% CI) [8]: 2.01 (1.13-3.58)
OS HR (95% CI) [8]: 0.67 (0.37-1.23)
EFS HR (95% CI) [9]: 1.15 (0.64-2.09)
MRD1 OR (95% CI) [9]: 0.92 (0.42-2)
OS HR (95% CI) [9]: 1.91 (1.01-3.62)
EFS HR (95% CI) [10]: 0.97 (0.66-1.44)
MRD1 OR (95% CI) [10]: 1.93 (1.12-3.32)
OS HR (95% CI) [10]: 0.89 (0.54-1.45)
EFS HR (95% CI) [11]: 1.21 (0.74-1.98)
MRD1 OR (95% CI) [11]: 0.97 (0.51-1.82)
OS HR (95% CI) [11]: 1.98 (1.13-3.44)
EFS HR (95% CI) [12]: 1.09 (0.76-1.57)
MRD1 OR (95% CI) [12]: 0.98 (0.6-1.61)
OS HR (95% CI) [12]: 0.97 (0.61-1.53)
EFS HR (95% CI) [13]: 1.45 (1.03-2.03)
MRD1 OR (95% CI) [13]: 1.1 (0.66-1.83)
OS HR (95% CI) [13]: 1.37 (0.9-2.08)
EFS HR (95% CI) [14]: 1.77 (1.14-2.75)
MRD1 OR (95% CI) [14]: 1.75 (1.08-2.83)
OS HR (95% CI) [14]: 2.05 (1.12-3.74)
EFS HR (95% CI) [15]: 0.98 (0.63-1.54)
MRD1 OR (95% CI) [15]: 1.44 (0.81-2.58)
OS HR (95% CI) [15]: 1.16 (0.68-1.97)
EFS HR (95% CI) [16]: 1.49 (1.05-2.1)
MRD1 OR (95% CI) [16]: 0.96 (0.56-1.64)
OS HR (95% CI) [16]: 1.32 (0.85-2.05)
EFS HR (95% CI) [17]: 1.39 (0.73-2.66)
MRD1 OR (95% CI) [17]: 0.95 (0.4-2.25)
OS HR (95% CI) [17]: 1.76 (0.8-3.86)
EFS HR (95% CI) [18]: 0.71 (0.42-1.2)
MRD1 OR (95% CI) [18]: 1.26 (0.72-2.21)
OS HR (95% CI) [18]: 0.78 (0.43-1.42)
EFS HR (95% CI) [19]: 0.98 (0.69-1.39)
MRD1 OR (95% CI) [19]: 1.14 (0.72-1.8)
OS HR (95% CI) [19]: 1.19 (0.79-1.79)
EFS HR (95% CI) [20]: 0.96 (0.69-1.32)
MRD1 OR (95% CI) [20]: 0.55 (0.35-0.87)
OS HR (95% CI) [20]: 1.03 (0.69-1.52)
